# Measured values from patent publication US20260364210A1, “COMPOSITIONS AND METHODS FOR TRANSGLUTAMINASE-MEDIATED ENDOCYTOSIS” (The Board of Trustees of the Leland Stanford Junior …, priority 2022, published 2026).
# Residues, ends and D or L forms follow the SMILES beside them.
# Assays:
# streptavidin = assay: Endocytosis of fluorescent streptavidin by NRK cells; assay type: cell-based, rat
# Experimental: FIG. 11: (A) Treating NRK cells with increasing concentrations of HB-3-003 in the presence of fluorescently tagged streptavidin leads to increased internalization of streptavidin after a 90 min treatment. (B) Quantification of dose response.
# In order to determine the ability of this pathway to clear specifically targeted proteins from the extracellular environment, we synthesized a pentapeptide harboring the electrophilic warhead and a PEG-4 biotin conjugated to the DAB substituted Y amino acid (HB2110). Streptavidin is expected to bind to the biotin arm of the probe, and thus be endocytosed along with the rest of the complex as previously described. To test this hypothesis NRK cells were treated with 2 μM HB2110 and 1 μM Cy5-conjugated streptavidin.
# We also synthesized the equivalent pentapeptide harbouring a Gln residue in the place of the electrophilic warhead, with biotin conjugated to the DAB substituted Y amino acid through a PEG linker (HB3-3). We then assed the ability of cells to endocytose fluorescent streptavidin in the presence of HB3-3 and α2M.
# α2M = assay: Internalization of fluorescently labeled α2M by NRK cells in the presence of unlabeled TG2 inhibitors; assay type: cell-based, rat; conditions: 100 μM cystamine by itself
# Experimental: FIG. 5A-5C: (A) HB-225 induces a dose dependent uptake of fluorescently tagged α2M.
# To identify the conformational requirements for high-affinity recognition of TG2 by α2M, fluorescently labeled α2M was added to NRK cell cultures in the presence of different (unlabeled) TG2 inhibitors.
# TG2 = conditions: role: inhibitor; absence of active site occupancy; Palanski and Khosla, 2018; cited from earlier work
# [1] = tested on: clathrin mediated endocytosis; assay: Inhibition of α2M / 33-mer endocytosis by inhibitors of clathrin mediated endocytosis in NRK cells; assay type: cell-based, rat
# Excerpt: FIG. 7A-7D: (A) Endocytosis of α2M (green) and 33 mer gluten peptide (red) by NRK cells.
# Low density lipoprotein (LDL) receptor-related protein 1 (LRP-1, a.k.a., (α2M receptor or CD91), a member of the LDL receptor family, is responsible for receptor-mediated endocytosis of α2M. Although this receptor is expressed on the surface of a wide range of cell types within the body, α2M endocytosis by LRP-1 is only triggered when this ubiquitous plasma protein undergoes a conformational change upon binding to its protease or non-protease ligands (Bres and Faissner, 2019). We sought to establish whether endocytosis of the ternary α2M-TG2-peptide complex was mediated by LRP-1 using pharmacologic inhibitors of clathrin mediated endocytosis.
# human TG2 = target: T1, human TG2 (Homo sapiens, UniProt P21980); assay: Steady-state kinetic analysis / TG2 inhibition; assay type: biochemical; conditions: role: inhibitor, substrate PQLPF and inhibitor concentrations varied
# T1 sequence (P21980 1-687): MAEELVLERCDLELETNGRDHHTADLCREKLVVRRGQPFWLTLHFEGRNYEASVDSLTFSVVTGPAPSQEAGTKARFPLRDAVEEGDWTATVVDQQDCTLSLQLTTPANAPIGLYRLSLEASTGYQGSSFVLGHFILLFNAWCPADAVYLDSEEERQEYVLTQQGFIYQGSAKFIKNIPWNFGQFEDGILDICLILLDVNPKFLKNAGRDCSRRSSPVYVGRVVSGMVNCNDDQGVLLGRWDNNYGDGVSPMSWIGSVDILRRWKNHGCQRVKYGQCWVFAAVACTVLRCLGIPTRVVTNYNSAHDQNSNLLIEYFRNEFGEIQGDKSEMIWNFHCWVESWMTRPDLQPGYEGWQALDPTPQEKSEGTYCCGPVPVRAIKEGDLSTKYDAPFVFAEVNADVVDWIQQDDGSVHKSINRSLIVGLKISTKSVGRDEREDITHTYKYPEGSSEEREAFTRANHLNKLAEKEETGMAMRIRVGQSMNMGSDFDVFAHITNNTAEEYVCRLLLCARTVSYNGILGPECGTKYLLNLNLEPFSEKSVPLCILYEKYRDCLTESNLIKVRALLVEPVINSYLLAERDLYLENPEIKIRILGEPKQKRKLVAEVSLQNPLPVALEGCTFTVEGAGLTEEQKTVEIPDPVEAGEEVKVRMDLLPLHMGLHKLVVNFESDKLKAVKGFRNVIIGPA
# Excerpt: FIG. 1: Kinetic analysis of TG2 inhibition by HB-225. Both substrate (PQLPF) and inhibitor concentrations were varied.
# FIG. 2: Comparison of TG2 inhibition by HB-225 and HB-230. The two compounds have very similar kinetic properties.
# Encouraged by this finding, we went on to design and synthesize our target fluorescent probe, HB230, in which a second unnatural amino acid residue, diaminobutyrate (DAB), was installed in place of Leu (L) in HB225. This residue was also predicted to neither be recognized by TG2 nor HLA-DQ2. Attachment of a Sulfo-Cy5 fluorophore via amide linkage to the DAB residue yielded the desired probe.
# [2] = tested on: normal rat kidney (NRK) cells; assay: Uptake of fluorescent probe by NRK cells with or without α2M; assay type: cell-based
# Excerpt: (C) Fluorescently tagged α2M colocalizes strongly with HB-230.
# FIG. 15. Uptake of HB-2121.
# Puncta of two distinct sizes were observed.
# To verify that HB230 internalization was dependent on TG2 activity, HB258 was designed and synthesized as a control probe. This dihydro-analog is otherwise identical to HB230 but lacks its electrophilic warhead and is therefore unable to irreversibly bond to the active site C277 residue of TG2.
# NRK cells [3] = assay: Intracellular payload (Cy5) release in NRK cells with or without cathepsin B inhibitor; assay type: cell-based, rat
# Experimental: FIG. 13A-13B: (A) HB-2108 is strongly endocytosed and cleaved leading to diffuse staining, (B) Inhibiting Cathepsin B mitigates diffuse pattern.
# We synthesized HB2108, by linking AcPQLPF to Cy5 via a cathepsin-labile valine-citrulline linker. NRK cells were then treated with HB2108 and α2M in the presence and absence of a cathepsin B inhibitor.
# chymotrypsin = assay: Metabolism by chymotrypsin; assay type: in vitro ADME; conditions: role: substrate
# Excerpt: (§1) FIGS. 14A-14B. Metabolic stability of HB-230 and HB-2121. (A) HB-230 is transformed by chymotrypsin to give the C-terminal carboxylic acid. This metabolite is subsequently cleaved by carboxypeptidase to give the tetrapeptide without the terminal phenylalanine. (B) HB-2121 is stable to both chymotrypsin and carboxypeptidase mediated metabolism.
# (§2) HB-2121 is analogous to the TG2 inhibitor/probe HB-230 but with one modification; the primary amide C-terminus of HB-230 was replaced with a tertiary dimethyl amide. This change greatly enhances the gastrointestinal stability of the probe.
# carboxypeptidase = assay: Metabolism by carboxypeptidase; assay type: in vitro ADME; conditions: role: substrate, subsequent to chymotrypsin
# Excerpt: as §1, §2
# NRK cells [4] = assay: Co-localized endocytosis of Sulfo-Cy5 33-mer gluten peptide and fluorescent α2M in NRK cells; assay type: cell-based, rat; conditions: Sulfo-Cy5-tagged 33 mer; compared with α2M and HB230
# Experimental: FIGS. 6A-6B: Fluorescently tagged 33 mer peptide (A) induces a similar pattern of internalization of α2M as HB-230 (B).
# Thus far, endocytosis of the TG2-α2M complex had exclusively been visualized using peptidic probes that irreversibly label the active site of TG2. To investigate whether transient enzyme-substrate complexes can be efficiently internalized in an α2M-dependent manner, NRK cells were co-incubated with fluorescent α2M and the aforementioned 33-residue gluten peptide (33 mer) tagged with a Sulfo-Cy5 fluorophore.
# cubilin = assay: Depletion of cell surface cubilin on NRK cells; assay type: cell-based, rat
# Experimental: FIG. 12A-12C: (A) Treating NRK cells with increasing concentrations of HB-3-002 leads to decrease of cell membrane cubilin after a 90 min treatment. (B) Quantification of dose response.
# Cell surface proteins can also be pharmacological targets. Thus we targeted cubilin, the canonical receptor for the intrinsic factor (IF)-vitamin B12 complex. We synthesized a pentapeptide harbouring a Gln residue in the X position, and vitamin B12 conjugated to the DAB substituted Y amino acid through a PEG-5 linker (HB3-2). […] Cubilin is stained using a sheep anti cubilin antibody which recognizes rat cubilin and an ovine Alexa-647 secondary antibody.
# [5] = high concentrations of both the probe and α2M
molecule,measurement,setting,value
"O=C(O)CCCC[C@@H]1SC[C@@H]2NC(=O)N[C@@H]21 [Biotin, reference compound]",uptake of streptavidin by individual components,"streptavidin; component alone, NRK cells",do not lead to increased uptake of streptavidin
"NCCSSCCN [Cystamine, cystamine]",internalization of fluorescent α2M,α2M,unable to promote rapid internalization of fluorescent α2M by itself
same,inactivation of TG2,TG2,inactivates TG2 by promoting C370-C371 disulfide bond formation
O=C(N/N=C/c1cc(O)c(O)cc1O)c1cc2ccccc2cc1O [Dyno-4a],inhibition of α2M and peptide colocalization as large endocytic puncta,[1]; 20 uM Dyno-4a,strong inhibition
"CC(=O)N1CCC[C@H]1C(=O)N[C@@H](CCC(N)=O)C(=O)N[C@@H](CCC(=O)NCCOCCOCCNC(=O)CCCC[C@@H]1SC[C@@H]2NC(=O)N[C@@H]21)C(=O)N1CCC[C@H]1C(=O)N[C@@H](Cc1ccccc1)C(N)=O [HB-3-003] (HELM PEPTIDE1{[ac].P.Q.E.P.F.[am]}|CHEM1{[O=C(CCCC[C@@H]1SC[C@@H]2NC(=O)N[C@@H]21)NCCOCCOCCN[*:1]]}$PEPTIDE1,CHEM1,4:R3-1:R1$$$V2.0)",endocytosis of fluorescent streptavidin,"streptavidin; presence of α2M, 90 min",endocytosed in an HB3-3 dose dependent manner
CC(=O)N1CCC[C@H]1C(=O)N[C@@H](CC/C=C/C(=O)N(C)C)C(=O)N[C@@H](CC(C)C)C(=O)N1CCC[C@H]1C(=O)N[C@@H](Cc1ccccc1)C(N)=O [HB-225] (HELM PEPTIDE1{[ac].P.[CN(C)C(=O)/C=C/CC[C@H](N[*:1])C(=O)[*:2]].L.P.F.[am]}$$$$V2.0),Ki,human TG2,13 µM
same,kinact,human TG2; read-out: ki (inactivation of TG2) (converted),0.000833 s⁻¹
CC(=O)N1CCC[C@H]1C(=O)N[C@@H](CCCCC(=O)N(C)C)C(=O)N[C@@H](CCNC(=O)CCCCC[N+]1=C(/C=C/C=C/C=C2/N(C)c3ccc(S(=O)(=O)O)cc3C2(C)C)C(C)(C)c2cc(S(=O)(=O)[O-])ccc21)C(=O)N1CCC[C@H]1C(=O)N[C@@H](Cc1ccccc1)C(N)=O [HB-258],appearance of intracellular puncta,[2]; [5],only appears as small intracellular puncta
same,uptake by NRK cells (probe without electrophilic warhead),[2]; [5],does not undergo significant uptake by NRK cells
CC(=O)N1CCC[C@H]1C(=O)N[C@@H](CCC(N)=O)C(=O)N[C@@H](CC(C)C)C(=O)N1CCC[C@H]1C(=O)N[C@@H](Cc1ccccc1)C(=O)N[C@H](C(=O)N[C@@H](CCCNC(N)=O)C(=O)NCCCCCCNC(=O)CCCCC[N+]1=C(/C=C/C=C/C=C2/N(C)c3ccccc3C2(C)C)C(C)(C)c2ccccc21)C(C)C [HB-2108] (HELM PEPTIDE1{[ac].P.Q.L.P.F.V.[Cit].[CN1/C(=C/C=C/C=C/C2=[N+](CCCCCC(=O)NCCCCCCN[*:1])c3ccccc3C2(C)C)C(C)(C)c2ccccc21]}$$$$V2.0),Cy5 staining / colocalization with α2M,NRK cells [3]; absence of cathepsin B inhibitor,very diffuse and no longer colocalizes with α2M
same,Cy5 staining / colocalization with α2M,NRK cells [3]; pre-treatment with cathepsin inhibitor,remains strongly colocalized with α2M in the lysosome
CC(=O)N1CCC[C@H]1C(=O)N[C@@H](CC/C=C/C(=O)N(C)C)C(=O)N[C@@H](CCNC(=O)CCCCC[N+]1=C(/C=C/C=C/C=C2/N(C)c3ccc(S(=O)(=O)O)cc3C2(C)C)C(C)(C)c2cc(S(=O)(=O)[O-])ccc21)C(=O)N1CCC[C@H]1C(=O)N[C@@H](Cc1ccccc1)C(=O)N(C)C [HB-2121],uptake by NRK cells with or without α-2-macroglobulin,"[2]; 2 μM HB-2121, with or without 100 μg/mL α-2-macroglobulin",α2M-enhanced endocytic uptake
same,metabolism by chymotrypsin,chymotrypsin,complete resistance to metabolism
same,metabolism by carboxypeptidase,carboxypeptidase,no subsequent metabolism
O=C1N=C(NS(=O)(=O)c2cccc3ccccc23)S/C1=C\c1ccc(Br)cc1 [Pitstop-2],inhibition of α2M and peptide colocalization as large endocytic puncta,[1]; 25 uM Pitstop,strong inhibition
"LQLQPFPQPQLPYPQPQLPYPQPQLPYPQPQPF [33 mer, 33-residue gluten peptide tagged with a Sulfo-Cy5 fluorophore]",co-localized endocytosis with fluorescent α2M,NRK cells [4],entirely analogous pattern of co-localized endocytosis
methyl-β-cyclodextrin,inhibition of α2M and peptide colocalization as large endocytic puncta,[1]; 12.5 mM MβCD,strong inhibition
vitamin B12 [reference compound],depletion of cubilin by individual components,cubilin; component alone,do not promote the depletion of cubilin
"RAP: inhibitor of LRP-1 (protein, UniProt P30533 35-357, looked up) Alpha-2-macroglobulin …: YSREKNQPKPSPKRESGEEFRMEKLNQLWEKAQRLHLPPVRLAELHADLKIQERDELAWKKLKLDGLDEDGEKEARLIRNLNVILAKYGLDGKKDARQVTSNSLSGTQEDGLDDPRLEKLWHKAKTSGKFSGEELDKLWREFLHHKEKVHEYNVLLETLSRTEEIHENVISPSDLSDIKGSVLHSRHTELKEKLRSINQGLDRLRRVSHQGYSTEAEFEEPRVIDLWDLAQSANLTDKELEAFREELKHFEAKIEKHNHYQKQLEIAHEKLRHAESVGDGERVSRSREKHALLEGRTKELGYTVKKHLQDLSGRISRARHNEL",effect of LRP-1 inhibition on depletion of surface cubilin,"cubilin; LRP-1 inhibited through RAP, HB3-2 with intrinsic factor",mitigates the depletion of surface cubilin
